Consider six compounds from ChEMBL document CHEMBL4052737, “3-Oxo-γ-costic acid fungal-transformation generates eudesmane sesquiterpenes with in vitro tumor-inhibitory activity” (Bioorg Med Chem Lett, 2017).

Holding throughout (format): functional, cell-based
In one experiment the test system is A549. As to the kind of experiment: Antiproliferative activity against human A549 cells after 48 hrs by MTT assay. To be noted: for IC50: A549, 48 h.
Experiment [1] deals with Caco-2. Nature of the experiment: Antiproliferative activity against human Caco2 cells after 48 hrs by MTT assay. To be noted: for IC50: Caco-2, 48 h. On the technique in general: Formazan colour is commonly taken as a measure of viable cells.
Experiment [2] deals with Caco-2. Nature of the experiment: Induction of morphological changes in human Caco2 cells assessed as cell shrinkage at 50 uM by bright field phase contrast microscopy.
In experiment [3] the test system is Caco-2. Nature of the experiment: Induction of morphological changes in human Caco2 cells assessed as monolayer disruption at 50 uM by bright field phase contrast microscopy.

Molecules are shown by their SMILES. The source made the active and inactive calls. No cut-off for these calls is given here.

In general, IC50 refers to the concentration that gives 50% inhibition. Higher therefore signals weaker potency. As for `C=C(C(=O)O)[C@@H]1CC[C@@]2(C)C[C@H](O)C(=O)C(C)=C2C1`, in the experiment on A549, the Activity result is “Dose-dependent effect” and the half-maximal inhibitory concentration (IC50) was greater than 100 µM. Moreover, in the experiment with Caco-2 [1], the Activity result is “Dose-dependent effect” and the IC50 is 60 µM.

Consider `C=C(C(=O)O)[C@@H]1CC[C@@]2(C)C=C(O)C(=O)C(C)=C2C1`, for which, in the experiment with A549, the Activity result is “Dose-dependent effect” and the IC50 was greater than 100 µM. Also, in the experiment with Caco-2 [1], the Activity entry is “Dose-dependent effect” and the IC50 amounted to 46 µM.

Regarding `C=C(C(=O)O)[C@@H]1CC[C@]2(C)C(=C(C)C(=O)C[C@H]2O)C1`, in the experiment with A549, the Activity entry was “Dose-dependent effect” and the IC50 is greater than 100 µM. In the experiment on Caco-2 [1], the Activity entry was “Dose-dependent effect” and the IC50 worked out at 75 µM.

As for `C=C(C(=O)O)[C@@H]1CC[C@@]2(C)CCC(=O)C(C)=C2C1`, the Activity entry in the experiment on A549 and in the experiment with Caco-2 [1] was “Dose-dependent effect” throughout. Further, the IC50 in the experiment with A549 was greater than 100 µM; with Caco-2 [1] it was 39 µM. Moreover, the outcome in the experiment on Caco-2 [2] and in the experiment with Caco-2 [3] was Active.

As to `C=C(C(=O)O)[C@@H]1CC[C@]2(C)C(=C(C)C(=O)[C@@H](O)[C@H]2O)C1`, in the experiment on A549, the Activity entry is “Dose-dependent effect” and the IC50 amounted to 74 µM. Moreover, in the experiment on Caco-2 [1], the Activity result was “Dose-dependent effect” and the midpoint of inhibition, the IC50, lay at 66 µM.

As for `C=C(C(=O)O)[C@@H]1CC[C@@]2(C)C=CC(=O)C(C)=C2C1`, in the experiment with A549, the Activity result was “Dose-dependent effect” and the IC50 is greater than 100 µM. Further, in the experiment on Caco-2 [1], the Activity entry is “Dose-dependent effect” and half-maximal inhibition (IC50) was put at 66 µM.
